Here are results for two compounds from US6423695B1, “Cytokine related treatments of disease” (Ribapharm, Inc., priority 1998, dated 2002).

One assay deals with Th1 and Th2 responses. Nature of the assay: Modulation of Th1 and Th2 responses at administered dose. Type of assay: in vivo. The source says: The effects of 2-β-D-ribofuranosylthiazole-4-carboxamide (Tiazofurin), a synthetic C-nucleoside analogue, on GTP levels supports this view. Tumor cells are characterized by high levels of inosine monophosphate dehydrogenase (IMP DH) activity, and it is known that IMP DH is the rate-limiting enzyme of GTP biosynthesis. Weber, G., IMP Dehydrogenase and GTP as Targets in Human Leukemia Treatment. Adv. Exp. Med. Biol. 309B:287-292 (1991). […] Weber, G., Critical Issues in Chemotherapy with Tiazofurin, Adv. Enzyme Regul. 29:75-95 (1989). Typical initial doses of Tiazofurin are about 4,400 mg/m^2, with consolidation doses of about 1100 to 3300 mg/m^2. […] In one aspect of the present invention it is contemplated that much smaller doses of Tiazofurin, in the range of 1/10th to one-half that set forth above, would be sufficient to specifically suppress either a Th1 response or a Th2 response without greatly reducing the other response.
The effects of 1β-D-ribofuranosyl-1,2,4-triazole-3-carboxamide (Ribavirin) also supports the present theory. […] Yamada, Y. et al., Action of the Active Metabolites of Tiazofurin and Ribavirin on Purified IMP Dehydrogenase, Biochem. 27:2193-2196 (1988). Ribavirin proceeds under a different mechanism than Tiazofurin in inhibiting IMP DH, however, acting on a different site on the enzyme molecule. Ribavirin is converted to its active metabolite, ribavirin-monophosphate (RMP), which inhibits the enzyme at the IMP-XMP site of IMP DH. As with Tiazofurin, the affinity of Ribavirin's active form to the enzyme is higher than that of the natural metabolite.
In another aspect of the invention, an abnormality reflected in increased response in one group of cytokines is treated by administering a nucleoside or other compound that increases response in another group of cytokines. Thus, for example, a common rapid onset type of allergy results in an abnormally elevated Th2 response.
It is also contemplated that an abnormality reflected in increased response in one group of cytokines can be treated by administering a nucleoside that increases response in another group of cytokines.

Assay [1] concerns inosine monophosphate dehydrogenase (IMP DH). The settings on record: cited from earlier work.
For another assay, the system named is guanine nucleotide pools. The settings on record: cited from earlier work.
The subject of a further assay is tumors. To be noted: in vivo; cited from earlier work.
Setting [2] is: approximately 600 to 1000 mg/day.

Entries after “also recorded” stand apart in the source; their conditions may differ.

On to `NC(=O)c1ncn([C@@H]2O[C@H](CO)[C@@H](O)[C@H]2O)n1` [Ribavirin, 1β-D-ribofuranosyl-1,2,4-triazole-3-carboxamide], for which, in the assay on Th1 and Th2 responses (setting [2]), the Th1 response entry is “promotes a Th1 response; also recorded: Th1 response is induced” and the Th2 response entry is reported as “suppresses a Th2 response; also recorded: Th2 response is suppressed”. The Th1 response result with Th1 and Th2 responses (low dosages of about 500 mg/day to about 1,000 mg/day) was “increases Th1 response”. Also, the “Th1 and Th2 responses” value in the assay with Th1 and Th2 responses (relatively high doses, approximately 2200 mg/m^2 or about 1200-1500 mg/day for an adult) is “both Th1 and Th2 responses are inhibited”. In addition, the “IMP DH activity” value in assay [1] is on record as “inhibit IMP DH”.

For `NC(=O)c1csc([C@@H]2O[C@H](CO)[C@@H](O)[C@H]2O)n1` [Tiazofurin, 2-β-D-ribofuranosylthiazole-4-carboxamide], the “Th1 and Th2 responses” value in the assay with Th1 and Th2 responses (Tiazofurin initial doses about 4,400 mg/m^2, consolidation doses about 1100 to 3300 mg/m^2) is “greatly reduced”. In addition, the “IMP DH activity” value in assay [1] was “selectively block IMP DH activity”. Besides, the guanine nucleotide pools result in the assay with guanine nucleotide pools is recorded as “deplete guanine nucleotide pools”. Moreover, the tumor remission entry in the assay on tumors is given as “forces various tumors into remission”.
